Measurements: publication PMC9570594, “Development of Novel Pyridine-Thiazole Hybrid Molecules as Potential Anticancer Agents” (Molecules, 2022)
Where two headings read alike, the source gives them in different places.

Experiments:
[1] = system: UACC-62 (Melanoma); experiment: NCI five-dose SRB assay; type: cell-based; conditions: Homo sapiens, 48 h
[2] = system: Colo 205 (Colon Cancer); experiment: NCI one-dose SRB assay; conditions: 10 μM, 48 h
[3] = system: human epidermal keratinocytes of HaCaT line; experiment: MTT assay of cell viability; conditions: 72 h
[4] = system: SNB-75 (CNS Cancer); experiment: NCI five-dose SRB assay; type: cell-based; conditions: Homo sapiens, 48 h
[5] = system: RXF 393 (Renal Cancer); experiment: NCI five-dose SRB assay; type: cell-based; conditions: Homo sapiens, 48 h
[6] = system: MDA-MB-468 (Breast Cancer); experiment: NCI five-dose SRB assay; type: cell-based; conditions: Homo sapiens, 48 h
[7] = system: Melanoma cell lines (MG_MID); experiment: NCI five-dose SRB assay; type: cell-based; conditions: Homo sapiens, 48 h
[8] = system: MCF-7 breast cancer cells; experiment: Soft agar drug sensitivity assay; type: cell-based, human; conditions: MCF-7, 1 and 5 µM, day 12
Protocol: It was proposed that testing of drugs in a 3-dimensional (3D) format, such as soft agar, is more similar to the in vivo cellular microenvironment and the results of such testing have a good correlation with in vivo conditions.
Five hundred MCF-7 breast cancer cells in 0.5% sterile agar (Bacto-Agar, Difco Laboratories) were layered on a preformed 0.8% sterile agar layer using 24 well plate (CytoONE, STARLAB International GmbH, Hamburg, Germany). The cells in agar were treated with the compound 4 at concentrations of 1 and 5 µM/mL. Doxorubicin was used as a positive control. The 0.5% agar layer included DMEM medium containing 10% FBS, cells, and tested compounds. The 0.8% agar layer included DMEM medium. Colonies with a size of >50 µm were counted under the microscope and photographed after 12 days.

[9] = system: NCI-H226 (Non-Small Cell Lung Cancer); experiment: NCI five-dose SRB assay; type: cell-based; conditions: Homo sapiens, 48 h
[10] = system: KB3-1 cells; experiment: Fluorescent microscopy of morphological changes (Hoechst 33342/PI); type: cell-based, human; conditions: KB3-1, 5 µM, 48 h
Protocol: In addition, we observed multinucleated giant cells. […] The condensed chromatin, a characteristic feature of apoptosis, and dead cells were observed under the action of all studied compounds.
KB3-1 cells were seeded in the 12-well plates (CytoONE, STARLAB International GmbH, Hamburg, Germany) on glass microscopic slides and incubated overnight. Studied compounds were added to cells in the following concentrations: the compounds 3, 4 and cisplatin—5 µM/mL, doxorubicin—1 µM/mL. Cells were incubated for the next 48 h. Chromatin material of living and apoptotic cells was stained with the DNA-specific fluorescent dye Hoechst 33342 (Sigma-Aldrich, Burlington, MA, USA) and the DNA/RNA-specific fluorescent dye Propidium iodide (PI, Sigma, Burlington, MA, USA). Fluorochromes were added to cultured cells at final concentrations 0.2–0.5 μg/mL for Hoechst 33342 and 0.1 μg/mL—for PI. Images were made with a fluorescent Zeiss microscope (Carl Zeiss, Oberkochen, Germany). Magnification ×400. Microphotographs were additionally analyzed using ImagePro7N software.

[11] = system: NCI-H522 (Non-Small Cell Lung Cancer); experiment: NCI one-dose SRB assay; conditions: 10 μM, 48 h
Protocol: Primary anticancer assays (Table 3) on a panel of 60 cancer cell lines at one dose-assay (10^−5 M) were performed according to the NCI protocol, as described elsewhere [31, 32, 33, 34, 35].
A primary anticancer assay was performed on a panel of approximately sixty human tumor cell lines derived from nine neoplastic diseases, in accordance with the protocol of the Drug Evaluation Branch, National Cancer Institute, Bethesda [31, 32, 33, 34, 35]. Tested compounds were added to the culture at a single concentration (10^−5 M) and the cultures were incubated for 48 h. End point determinations were made with a protein binding dye, Sulphorhodamine B (SRB). […] The percentage growth was evaluated spectrophotometrically versus controls not treated with test agents.

[12] = system: SK_MEL-5 (Melanoma); experiment: NCI five-dose SRB assay; type: cell-based; conditions: Homo sapiens, SK-MEL-5, 48 h
[13] = system: NCI-H522 (Non-Small Cell Lung Cancer); experiment: NCI five-dose SRB assay; type: cell-based; conditions: Homo sapiens, 48 h
[14] = system: RPMI-8226 (Leukemia); experiment: NCI five-dose SRB assay; type: cell-based; conditions: Homo sapiens, 48 h
[15] = system: HOP-62 (Non-Small Cell Lung Cancer); experiment: NCI five-dose SRB assay; type: cell-based; conditions: Homo sapiens, 48 h
[16] = system: MCF-7 breast cancer cells; experiment: Annexin V-FITC/PI binding assay (flow cytometry); conditions: MCF-7, 5 µM, 24 h; control 4.4 ± 0.6%
[17] = system: MDA-MB-435 (Melanoma); experiment: NCI five-dose SRB assay; type: cell-based; conditions: Homo sapiens, 48 h
[18] = system: MCF-7 cells; experiment: Chemical synthetic lethality: MTT after preincubation with MGMT inhibitor Lomeguatrib; type: cell-based, human; conditions: for IC50: Homo sapiens, MCF7, 72 h MTT
[19] = system: SK-MEL-2 (Melanoma); experiment: NCI five-dose SRB assay; type: cell-based; conditions: Homo sapiens, 48 h
[20] = system: HS 578T (Breast Cancer); experiment: NCI five-dose SRB assay; type: cell-based; conditions: Homo sapiens, 48 h
[21] = system: UO-31 (Renal Cancer); experiment: NCI five-dose SRB assay; type: cell-based; conditions: Homo sapiens, 48 h
[22] = system: BALB-3T3 (normal mouse fibroblasts); experiment: MTT assay of cell viability; conditions: BALB/3T3, 72 h
[23] = system: HL-60(TB) (Leukemia); experiment: NCI five-dose SRB assay; type: cell-based; conditions: Homo sapiens, 48 h
[24] = system: MOLT-4 (Leukemia); experiment: NCI five-dose SRB assay; type: cell-based; conditions: Homo sapiens, 48 h
[25] = system: HCC-2998 (Colon Cancer); experiment: NCI five-dose SRB assay; type: cell-based; conditions: Homo sapiens, 48 h
[26] = system: SF-268 (CNS Cancer); experiment: NCI five-dose SRB assay; type: cell-based; conditions: Homo sapiens, 48 h
[27] = system: HCT-15 (Colon Cancer); experiment: NCI five-dose SRB assay; type: cell-based; conditions: Homo sapiens, 48 h
[28] = system: MDA-MB-231/ATCC (Breast Cancer); experiment: NCI five-dose SRB assay; type: cell-based; conditions: Homo sapiens, 48 h
[29] = system: CNS Cancer cell lines (MG_MID); experiment: NCI five-dose SRB assay; type: cell-based; conditions: Homo sapiens, 48 h
[30] = system: NCI-H460 (Non-Small Cell Lung Cancer); experiment: NCI five-dose SRB assay; type: cell-based; conditions: Homo sapiens, 48 h

CCOC(=O)c1ccc(NC(=O)CSC(CC(=O)c2sc(Nc3ccccn3)nc2C)c2ccccc2F)cc1 (stereo not drawn) [Compound 4, Ethyl 4-[[2-[1-(2-Fluorophenyl)-3-[4-methyl-2-(2-pyridylamino)thiazol-5-yl]-3-oxopropyl]sulfanylacetyl]amino]benzoate]
GI50 [1]: 16.1 µM
Growth % [2]: −34.08%
IC50 [3]: > 50 µM
GI50 [4]: 3.58 µM
GI50 [5]: 2.59 µM
GI50 [6]: 4.24 µM
GI50 [7]: 25.3 µM
size and number of colonies in soft agar [8]: reduces the size and number of colonies
GI50 [9]: 2.52 µM
morphological changes [10]: changes in nuclear morphology, similar to a mitotic catastrophe
Growth % [11]: −22.73%
GI50 [12]: 18.6 µM
GI50 [13]: 21.6 µM
GI50 [14]: 8.29 µM
GI50 [15]: 37.5 µM
apoptotic cells (sum of early and late apoptotic cells) [16]: 42.7 ± 7.0%
GI50 [17]: 26.3 µM
IC50 ([18]; MCF-7, 3 h preincubation with Lomeguatrib, read-out: IC50 with the MGMT inhibitor): 0.72 µM
IC50 ([18]; MCF-7, compound alone, read-out: IC50): 2.28 µM
enhancement of sensitivity by Lomeguatrib preincubation ([18]; MCF-7): 3 times
combination effect with the MGMT inhibitor ([18]; MCF-7, compared with individual treatments): synergistic activity
GI50 [19]: 44.9 µM
GI50 [20]: 14.9 µM
GI50 [21]: 3.19 µM
IC50 [22]: 7.79 ± 0.38 µM
GI50 [23]: 21.4 µM
GI50 [24]: 32.2 µM
GI50 [25]: 23.1 µM
GI50 [26]: 43.1 µM
GI50 [27]: 25.8 µM
GI50 [28]: 19.3 µM
GI50 [29]: 32.7 µM
GI50 [30]: 31.2 µM
